In general, Kd refers to the concentration at which binding is half-saturated.

Among the data in PMC12154549, “Structure-based design of an aromatic helical foldamer–protein interface” (Chemical Science, 2025) are Kd values, retold here.

Assay [1] concerns the target T1, HCAII (Homo sapiens, UniProt P00918).
T1 construct: made in house
As to the kind of experiment: Fluorescence competition assay: HCAII titrated into foldamer or ligand plus probe 23. Conditions: [competing species] = [23] = 50 nM; 50 mM HEPES pH 7.2; 1:1 binding isotherm, 380-600 nm; repeatable within ±15%. The text has this: We turned to a recently published assay that exploits the quenching of the fluorescence of nanomolar ligand 23 upon binding to HCAII (Fig. 8a).[32] The low KD value of 23 makes it suitable to perform competition (displacement) assays with compounds binding in the same concentration range. However, some optimization of the assay was required to perform experiments with foldamer-containing ligands because the foldamers absorb both at the excitation (373 nm) and emission (400–450 nm) wavelengths of 23. Performing classical direct displacement titrations where a foldamer is added to a solution containing 23 and HCAII would be complicated by variable inner filter effects. […] For fluorescence measurements: 50 mM HEPES (4-(2-hydroxyethyl)-1-piperazineethanesulfonic acid) at pH 7.2. […] It appears that the fluorescence drops upon adding HCAII, i.e. that ligand 23 binds to HCAII, in presence of the foldamer faster than predicted by the binding model. A better fit can be artificially obtained by inputting HCAII concentrations 20% larger than those measured or foldamer concentrations 20% lower than those measured in the curve fitting program. […]
4.2 Fluorescence binding assay […]
2. To the solution of 23 (50 nM) in HEPES buffer (50 mM, pH 7.2) in the fluorescence cuvette (2 mL), incremental volumes of a stock solution of HCAII (11 µM) in HEPES buffer were added. […]

In assay [2] the target is T1, HCAII. Also on record: method as in PMID 30395443. The settings on record: HCAII immobilized; 2:98 DMSO/PBS pH 7.4, 25 °C; ref 8a; read-out: KD by SPR; cited from earlier work. (In general: SPR reads the build-up and loss of mass on a sensor chip optically.)
For assay [3], the target named is T1, HCAII. Briefly: Direct fluorescence titration of probe 23 with HCAII. Format: binding. Conditions: 23 50 nM, 50 mM HEPES pH 7.2, RT, 1:1 model; read-out: KD of 23·HCAII complex. The method, then: 4.2 Fluorescence binding assay
This fluorescence assay was adapted from the paper of Anzenbacher.18 All fluorescence titrations were done in aqueous 50 mM HEPES buffer (pH = 7.2) at room temperature , without degassing of the samples and using a qua rtz fluorescence cuvette with 1 cm path length on Varian Cary Eclipse Spectrophotometer 05813. The titration assays were carried out in two parts: 1) sensor - protein titration (Figure S21); 2) sensor-foldamer competition assay (Figure S24). Several experiments were repeated and validated a reproducibility within 15% error.
Figure S21. Schematic procedure of the titration experiment between indicator 23 and HCAII (adapted from literature18).
4.2.1 KD measurement of the 23•HCAII complex
1. […]
2. To the solution of 23 (50 nM) in HEPES buffer (50 mM, pH 7.2) in the fluorescence cuvette (2 mL), incremental volumes of a stock solution of HCAII (11 µM) in HEPES buffer were added.
After each addition and gentle agitation, the resulting mixture was incubated for 5 min at RT. The intensity of fluorescence (IF) was then recorded from 380 nm to 600 nm (λex = 373 nm).   […]
software.19 For curve fitting, the binding model was set to 1:1. The spectra of all emitting species were recorded from 380 nm to 600 nm (λex = 373 nm) in separate experiments and set as “unknown spectrum”. The KD value was determined considering all the wavelengths recorded. […]

Read-outs that look alike come from different tables or passages of the source.

As for `NCCCCOc1cccc(CNC(=O)c2ccc(S(N)(=O)=O)cc2)c1` [ligand 22], the Kd in assay [1] was 10 nM; in assay [2], 5 nM.
Regarding `COc1ccc2cc(C(=O)Nc3nnc(S(N)(=O)=O)s3)c(=O)oc2c1` [probe 23], in assay [3], the Kd was determined as 1.69 nM.
